Results reported in ChEMBL document CHEMBL4680144, “N-thiadiazole-4-hydroxy-2-quinolone-3-carboxamides bearing heteroaromatic rings as novel antibacterial agents: Design, synthesis, biological evaluation and target identification” (Eur J Med Chem, 2020).
pIC50: −log10 of the molar value. Values after ≈ are worked out from the molar mass of the structure shown. Each block holds one compound with its values, some of them ahead of it.

Legend:
[1] = test system: Staphylococcus aureus; assay: Antibacterial activity against wild type methicillin-sensitive Staphylococcus aureus ATCC 29213 assessed as inhibition of bacterial growth incubated for 18 to 24 hrs by broth microdilution method; type: functional; details: time 18-24 hrs
[2] = test system: Staphylococcus aureus; assay: Antibacterial activity against methicillin-resistant Staphylococcus aureus clinical isolate 15-1 assessed as inhibition of bacterial growth incubated for 18 to 24 hrs by broth microdilution method; type: functional; details: time 18-24 hrs
[3] = test system: Staphylococcus aureus; assay: Antibacterial activity against methicillin-resistant Staphylococcus aureus clinical isolate 15-2 assessed as inhibition of bacterial growth incubated for 18 to 24 hrs by broth microdilution method; type: functional; details: time 18-24 hrs
[4] = test system: Staphylococcus aureus; assay: Antibacterial activity against methicillin-resistant Staphylococcus aureus clinical isolate 15-3 assessed as inhibition of bacterial growth incubated for 18 to 24 hrs by broth microdilution method; type: functional; details: time 18-24 hrs
[5] = test system: Staphylococcus aureus; assay: Antibacterial activity against methicillin-resistant Staphylococcus aureus clinical isolate 15-6 assessed as inhibition of bacterial growth incubated for 18 to 24 hrs by broth microdilution method; type: functional; details: time 18-24 hrs
[6] = test system: Staphylococcus aureus; assay: Antibacterial activity against methicillin-resistant Staphylococcus aureus clinical isolate 15-7 assessed as inhibition of bacterial growth incubated for 18 to 24 hrs by broth microdilution method; type: functional; details: time 18-24 hrs
[7] = test system: Staphylococcus aureus; assay: Antibacterial activity against methicillin-resistant Staphylococcus aureus clinical isolate 15-8 assessed as inhibition of bacterial growth incubated for 18 to 24 hrs by broth microdilution method; type: functional; details: time 18-24 hrs
[8] = test system: Staphylococcus aureus; assay: Antibacterial activity against methicillin-resistant Staphylococcus aureus clinical isolate 15-9 assessed as inhibition of bacterial growth incubated for 18 to 24 hrs by broth microdilution method; type: functional; details: time 18-24 hrs
[9] = test system: Staphylococcus aureus; assay: Antibacterial activity against methicillin resistant and vancomycin-intermediate sensitive Staphylococcus aureus ATCC 700699 assessed as inhibition of bacterial growth incubated for 18 to 24 hrs by broth microdilution method; type: functional; details: time 18-24 hrs
[10] = test system: Staphylococcus aureus; assay: Antibacterial activity against methicillin resistant and vancomycin-intermediate sensitive Staphylococcus aureus ATCC 700788 assessed as inhibition of bacterial growth incubated for 18 to 24 hrs by broth microdilution method; type: functional; details: time 18-24 hrs
[11] = test system: Staphylococcus epidermidis; assay: Antibacterial activity against methicillin-sensitive Staphylococcus epidermidis clinical isolate 15-3 assessed as inhibition of bacterial growth incubated for 18 to 24 hrs by broth microdilution method; type: functional; details: time 18-24 hrs
[12] = test system: Staphylococcus epidermidis; assay: Antibacterial activity against methicillin-sensitive Staphylococcus epidermidis clinical isolate 15-4 assessed as inhibition of bacterial growth incubated for 18 to 24 hrs by broth microdilution method; type: functional; details: time 18-24 hrs
[13] = test system: Staphylococcus epidermidis; assay: Antibacterial activity against methicillin-resistant Staphylococcus epidermidis clinical isolate 15-1 assessed as inhibition of bacterial growth incubated for 18 to 24 hrs by broth microdilution method; type: functional; details: time 18-24 hrs
[14] = test system: Staphylococcus epidermidis; assay: Antibacterial activity against methicillin-resistant Staphylococcus epidermidis clinical isolate 15-2 assessed as inhibition of bacterial growth incubated for 18 to 24 hrs by broth microdilution method; type: functional; details: time 18-24 hrs
[15] = test system: Staphylococcus epidermidis; assay: Antibacterial activity against methicillin-resistant Staphylococcus epidermidis clinical isolate 15-3 assessed as inhibition of bacterial growth incubated for 18 to 24 hrs by broth microdilution method; type: functional; details: time 18-24 hrs
[16] = test system: Enterococcus faecalis; assay: Antibacterial activity against Enterococcus faecalis clinical isolate 15-1 assessed as inhibition of bacterial growth incubated for 18 to 24 hrs by broth microdilution method; type: functional; details: time 18-24 hrs
[17] = test system: Enterococcus faecalis; assay: Antibacterial activity against Enterococcus faecalis clinical isolate 15-2 assessed as inhibition of bacterial growth incubated for 18 to 24 hrs by broth microdilution method; type: functional; details: time 18-24 hrs
[18] = test system: Enterococcus faecium; assay: Antibacterial activity against Enterococcus faecium clinical isolate 15-1 assessed as inhibition of bacterial growth incubated for 18 to 24 hrs by broth microdilution method; type: functional; details: time 18-24 hrs
[19] = test system: Enterococcus faecium; assay: Antibacterial activity against Enterococcus faecium clinical isolate 15-2 assessed as inhibition of bacterial growth incubated for 18 to 24 hrs by broth microdilution method; type: functional; details: time 18-24 hrs
[20] = test system: Enterococcus faecalis; assay: Antibacterial activity against vancomycin-resistant Enterococcus faecalis ATCC 51299 assessed as inhibition of bacterial growth incubated for 18 to 24 hrs by broth microdilution method; type: functional; details: time 18-24 hrs
[21] = test system: Enterococcus faecalis; assay: Antibacterial activity against vancomycin-resistant Enterococcus faecalis ATCC 700802 assessed as inhibition of bacterial growth incubated for 18 to 24 hrs by broth microdilution method; type: functional; details: time 18-24 hrs
[22] = test system: Enterococcus faecalis; assay: Antibacterial activity against vancomycin-resistant Enterococcus faecalis ATCC 51575 assessed as inhibition of bacterial growth incubated for 18 to 24 hrs by broth microdilution method; type: functional; details: time 18-24 hrs
[23] = Inhibition of Staphylococcus aureus Gyrase B using linear pBR322 DNA as substrate incubated for 30 mins in presence of ATP by ADP-Glo assay

Structure (SMILES): CCn1c(=O)c(C(=O)Nc2nnc(-c3ccccc3)s2)c(O)c2ccccc21
MIC [1]: 0.39 µg/mL (≈ 0.994 µM) | MIC [2]: 2 µg/mL (≈ 5.1 µM) | MIC [3]: 2 µg/mL (≈ 5.1 µM) | MIC [4]: 1 µg/mL (≈ 2.55 µM) | MIC [5]: 0.5 µg/mL (≈ 1.27 µM) | MIC [6]: 1 µg/mL (≈ 2.55 µM) | MIC [7]: 0.5 µg/mL (≈ 1.27 µM) | MIC [8]: 0.25 µg/mL (≈ 0.637 µM) | MIC [9]: 2 µg/mL (≈ 5.1 µM) | MIC [10]: 2 µg/mL (≈ 5.1 µM) | MIC [11]: 1 µg/mL (≈ 2.55 µM) | MIC [12]: 1 µg/mL (≈ 2.55 µM) | MIC [13]: 1 µg/mL (≈ 2.55 µM) | MIC [14]: 1 µg/mL (≈ 2.55 µM) | MIC [15]: 1 µg/mL (≈ 2.55 µM) | MIC [16]: 1 µg/mL (≈ 2.55 µM) | MIC [17]: 1 µg/mL (≈ 2.55 µM) | MIC [18]: 1 µg/mL (≈ 2.55 µM) | MIC [19]: 2 µg/mL (≈ 5.1 µM) | MIC [20]: 1 µg/mL (≈ 2.55 µM) | MIC [21]: 1 µg/mL (≈ 2.55 µM) | MIC [22]: 1 µg/mL (≈ 2.55 µM) | pIC50 [23]: 5.76

Structure (SMILES): CCn1c(=O)c(C(=O)Nc2nnc(-c3ccn(C)n3)s2)c(O)c2ccccc21
MIC [1]: 3.12 µg/mL (≈ 7.87 µM) | pIC50 [23]: 6.31

Structure (SMILES): CCCCc1nnc(NC(=O)c2c(O)c3ccccc3n(CC)c2=O)s1
MIC [1]: 0.1 µg/mL (≈ 0.268 µM) | MIC [2]: 2 µg/mL (≈ 5.37 µM) | MIC [3]: 2 µg/mL (≈ 5.37 µM) | MIC [4]: 2 µg/mL (≈ 5.37 µM) | MIC [5]: 2 µg/mL (≈ 5.37 µM) | MIC [6]: 4 µg/mL (≈ 10.7 µM) | MIC [7]: 2 µg/mL (≈ 5.37 µM) | MIC [8]: 2 µg/mL (≈ 5.37 µM) | MIC [9]: 4 µg/mL (≈ 10.7 µM) | MIC [10]: 4 µg/mL (≈ 10.7 µM) | MIC [11]: 2 µg/mL (≈ 5.37 µM) | MIC [12]: 2 µg/mL (≈ 5.37 µM) | MIC [13]: 2 µg/mL (≈ 5.37 µM) | MIC [14]: 2 µg/mL (≈ 5.37 µM) | MIC [15]: 2 µg/mL (≈ 5.37 µM) | MIC [16]: 2 µg/mL (≈ 5.37 µM) | MIC [17]: 2 µg/mL (≈ 5.37 µM) | MIC [18]: 2 µg/mL (≈ 5.37 µM) | MIC [19]: 2 µg/mL (≈ 5.37 µM) | MIC [20]: 8 µg/mL (≈ 21.5 µM) | MIC [21]: 8 µg/mL (≈ 21.5 µM) | MIC [22]: 8 µg/mL (≈ 21.5 µM) | pIC50 [23]: 6.00

Structure (SMILES): CCCn1c(=O)c(C(=O)Nc2nncs2)c(O)c2ccccc21
MIC [1]: 3.12 µg/mL (≈ 9.44 µM) | pIC50 [23]: 6.34

Next, values leading:

MIC [1]: 12.5 µg/mL (≈ 27.3 µM) | pIC50 [23]: 5.85
Structure (SMILES): CCn1c(=O)c(C(=O)Nc2nnc(-c3ccc(OC(F)F)cc3)s2)c(O)c2ccccc21

MIC [1]: 12.5 µg/mL (≈ 29.3 µM) | pIC50 [23]: 5.84
Structure (SMILES): CCn1c(=O)c(C(=O)Nc2nnc(-c3ccc(Cl)cc3)s2)c(O)c2ccccc21

MIC [1]: 3.12 µg/mL (≈ 7.39 µM) | pIC50 [23]: 6.12
Structure (SMILES): CCn1c(=O)c(C(=O)Nc2nnc(-c3ccccc3OC)s2)c(O)c2ccccc21

MIC [1]: 6.25 µg/mL (≈ 15.2 µM) | pIC50 [23]: 5.74
Structure (SMILES): CCn1c(=O)c(C(=O)Nc2nnc(-c3cccc(F)c3)s2)c(O)c2ccccc21
